Data from US20090176791A1, “Diaryl Ureas for Treating Pulmonary Hypertension” (BAYER HEALTHCARE AG, priority 2005, published 2009).

System: monocrotaline-treated rats with pulmonary hypertension
Settings: MCT-induced pulmonary arterial hypertension, 10 mg/kg by gavage once daily from day 14 to day 28 after MCT
Protocol: The effects of the compounds and drug combinations according to the invention are tested in vitro on isolated rat pulmonary arteries and in vivo in monocrotaline-treated rats with pulmonary hypertension.
Male Sprague Dawley rats (250-300 g) are treated with monocrotaline 60 mg/kg subcutaneously (=day 0). On day 14 after monocrotaline injection treatment the compound/combination to be tested is administered. On day 28 hemodynamic parameters, i.e. right ventricular pressure, systemic blood pressure, heart rate, arterial and venous oxygen saturation are measured and compared with untreated control animals.

## CNC(=O)c1cc(Oc2ccc(NC(=O)Nc3ccc(Cl)c(C(F)(F)F)c3)cc2)ccn1.Cc1ccc(S(=O)(=O)O)cc1 [p-toluenesulfonic acid salt of 4{4-[3-(4-chloro-3-trifluoromethylphenyl)-ureido]-phenoxy}-pyridine-2-carboxylic acid methyl amide]
Day 28
  right ventricle/left ventricle+septum ratio (right ventricular hypertrophy): 0.26±0.01
Measured on day 28, mean±SEM
  right ventricular systolic pressure: 36.50±1.50 mmHg
